Measured values from EP4417602A1, “SUBSTITUTED PYRAZOLE CARBOXAMIDES, SALTS THEREOF AND THEIR USE AS HERBICIDALLY ACTIVE SUBSTANCES” (Bayer AG, priority 2023, dated 2024).

Legend:
POAAN = test: A. Herbicidal pre-emergence action on harmful plants (Tables A); format: in vivo, Poa annua
Procedure, shortened: (§1)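 Values are visual percent damage relative to untreated controls, scored ca. 3 weeks after the compound was sprayed on the covering soil of sown pots (sandy loam) at rates up to 1280 g/ha, formulated as WP or EC with 0.5% additive.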

AMARE = test: as above; format: in vivo, Amaranthus retroflexus
Procedure, shortened: as §1

DIGSA = test: as above; format: in vivo, Digitaria sanguinalis
Procedure, shortened: as §1

KCHSC [1] = test: as above; format: in vivo, Kochia scoparia; conditions: application rate 1280 g/ha; visual grading after ca. 3 weeks vs untreated controls; 100% = plants have died off, 0% = as control plants
Excerpt: Seeds of mono- and dicotyledonous weed plants were sown in plastic pots (double sowings with one species of mono- and one species of dicotyledonous weed plants per pot), in sandy loam, and covered with soil. The compounds according to the invention, formulated in the form of wettable powders (WP) or as emulsifiable concentrates (EC), were applied to the surface of the covering soil as aqueous suspension or emulsion, with the addition of 0.5% of an additive, at an application rate of 6001 of water per hectare (converted). Following treatment, the pots were placed in a greenhouse and kept under optimum growth conditions for the test plants. The visual grading of the damage to the test plants was carried out after ca. 3 weeks in comparison to untreated controls (herbicidal effect in percent (%): 100% effect = plants have died off, 0% effect = as control plants). Tables A1 to A12, below, show the effects of selected compounds of the general formula (I) according to table 1 on various harmful plants and an application rate corresponding to 1280 g/ha or below obtained by the experimental procedure mentioned above. Table A1: pre-emergence activity at 1280g/ha against ABUTH in %

VERPE = test: B. Herbicidal post-emergence action on harmful plants (Tables B); format: in vivo, Veronica persica; conditions: application rate 1280 g/ha; Table B11a
Procedure, shortened: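 Greenhouse weeds grown in sandy loam were sprayed post-emergence at the one-leaf stage, 2-3 weeks after sowing. Compounds were applied as WP or EC in water with 0.5% additive at 600 L/ha, at 1280 g/ha or below. Visual damage was rated after about 3 weeks versus untreated plants (0-100%).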

MATIN = test: A. Herbicidal pre-emergence action on harmful plants (Tables A); format: in vivo, Matricaria inodora; conditions: visual grading after ca. 3 weeks vs untreated controls, 100% = plants have died off, 0% = as control plants
Procedure, shortened: as §1

STEME = test: as above; format: in vivo, Stellaria media; conditions: visual grading after ca. 3 weeks vs untreated controls, 100% = plants have died off, 0% = as control plants
Procedure, shortened: as §1

SETVI = test: as above; format: in vivo, Setaria viridis; conditions: visual grading after ca. 3 weeks vs untreated controls, 100% = plants have died off, 0% = as control plants
Procedure, shortened: as §1

TRZAS [2] = test: D. Pre-emergence effects on crop plants (Tables D); format: in vivo, Triticum aestivum; conditions: crop plant
Excerpt: (§2) Seeds of mono- and dicotyledonous weed plants and crop plants were sown, in plastic or organic planting pots, in sandy loam and covered with soil. The compounds according to the invention, formulated in the form of wettable powders (WP) or as emulsifiable concentrates (EC), were applied to the surface of the covering soil as aqueous suspension or emulsion, with the addition of 0.5% of an additive, at an application rate of 6001 of water/ha (converted).
(§3) Following treatment, the pots were placed in a greenhouse and kept under optimum growth conditions for the test plants. The visual grading of the damage to the test plants was carried out after ca. 3 weeks in comparison to untreated controls (herbicidal effect in percent (%): 100% effect = plants have died off, 0% effect = as control plants).
(§4) Tables D1 to D5 below show the effects of various compounds of the general formula (I) according to Table 1 on various crop plants and an application rate corresponding to 320 g/ha or below obtained by the experimental procedure mentioned above in Biological Examples, Section C. Table D1a: pre-emergence activity at 320g/ha against ZEAMX in %

GLXMA [3] = test: F. Post-emergence effects on crop plants (Tables F); format: in vivo, Glycine max; conditions: application rate 320 g/ha, crop plant
Procedure, shortened: (§5)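 Plants were grown in sandy loam in a greenhouse and sprayed post-emergence at the single-leaf stage, 2–3 weeks after sowing. Visual damage was scored after ca. 3 weeks against untreated controls (0% = as control, 100% = dead).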

VIOTR = test: C. Herbicidal pre-emergence action, weed and crop plants (Tables C); format: in vivo, Viola tricolor; conditions: application rate 320 g/ha; Table C12a
Excerpt: (§6) Seeds of mono- and dicotyledonous weed plants and crop plants were sown, in plastic or organic planting pots, in sandy loam and covered with soil. The compounds according to the invention, formulated in the form of wettable powders (WP) or as emulsifiable concentrates (EC), were applied to the surface of the covering soil as aqueous suspension or emulsion, with the addition of 0.5% of an additive, at an application rate of 6001 of water/ha (converted). Following treatment, the pots were placed in a greenhouse and kept under optimum growth conditions for the test plants. The visual grading of the damage to the test plants was carried out after ca. 3 weeks in comparison to untreated controls (herbicidal effect in percent (%): 100% effect = plants have died off, 0% effect = as control plants). Tables C1 to C12 below show the effects of selected compounds of the general formula (I) according to table 1 on various harmful plants and an application rate corresponding to 320 g/ha or below obtained by the experimental procedure mentioned above. Table C1: pre-emergence activity at 320g/ha against KCHSC in %

BRSNW [4] = test: F. Post-emergence effects on crop plants (Tables F); format: in vivo, Brassica napus; conditions: application rate 320 g/ha, crop plant
Procedure, shortened: as §5

ZEAMX [5] = test: as above; format: in vivo, Zea mays; conditions: crop plant
Procedure, shortened: as §5

GLXMA [6] = test: D. Pre-emergence effects on crop plants (Tables D); format: in vivo, Glycine max; conditions: crop plant
Procedure, shortened: (§7)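 Seeds sown in sandy loam and covered; WP or EC formulations sprayed onto the soil surface as aqueous suspension/emulsion with 0.5% additive, at 320 g/ha or below. Greenhouse-grown; visual damage scored after ca. 3 weeks against untreated controls (0% = as control, 100% = plants dead).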

BRSNW [7] = test: D. Pre-emergence effects on crop plants (Tables D); format: in vivo, Brassica napus; conditions: crop plant
Procedure, shortened: as §7

KCHSC [8] = test: C. Herbicidal pre-emergence action, weed and crop plants (Tables C); format: in vivo, Kochia scoparia; conditions: application rate 320 g/ha; Table C1
Excerpt: as §6

ZEAMX [9] = test: D. Pre-emergence effects on crop plants (Tables D); format: in vivo, Zea mays; conditions: crop plant
Excerpt: as §2, §3, §4

TRZAS [10] = test: F. Post-emergence effects on crop plants (Tables F); format: in vivo, Triticum aestivum; conditions: crop plant
Procedure, shortened: as §5

[11] = application rate 1280 g/ha, visual grading after ca. 3 weeks vs untreated controls, 100% = plants have died off, 0% = as control plants

COCc1nn(Cc2ccccc2)cc1C(=O)N1CCCC1Cc1ccccc1F (racemic) [Example I-024]
90%: pre-emergence activity against POAAN (POAAN; application rate 80 g/ha, Table A7c) | pre-emergence activity against POAAN (POAAN; application rate 320 g/ha, Table A7b) | pre-emergence activity against AMARE (AMARE; application rate 320 g/ha, Table A8b) | pre-emergence activity against AMARE (AMARE; [11]) | pre-emergence activity against DIGSA (DIGSA; application rate 320 g/ha, Table A12b) | pre-emergence activity against DIGSA (DIGSA; application rate 1280 g/ha, Table A12a) | pre-emergence activity against KCHSC (KCHSC [1]) | post-emergence activity against VERPE (VERPE) | pre-emergence activity against MATIN (MATIN; application rate 80 g/ha) | pre-emergence activity against MATIN (MATIN; application rate 320 g/ha) | pre-emergence activity against MATIN (MATIN; application rate 1280 g/ha) | pre-emergence activity against STEME (STEME; application rate 320 g/ha) | pre-emergence activity against SETVI (SETVI; application rate 80 g/ha) | pre-emergence activity against SETVI (SETVI; application rate 320 g/ha) | pre-emergence activity against SETVI (SETVI; application rate 1280 g/ha)
100%: pre-emergence activity against POAAN (POAAN; [11]) | pre-emergence activity against STEME (STEME; application rate 1280 g/ha)

COCc1c(C(=O)N2CCCC2(C)Cc2ccccc2F)cnn1C (single isomer, unassigned) [Example I-066]
100%: pre-emergence activity against KCHSC (KCHSC [8])
0%: pre-emergence activity against TRZAS (TRZAS [2]; application rate 80 g/ha, Table D2b) | pre-emergence activity against TRZAS (TRZAS [2]; application rate 320 g/ha, Table D2a) | post-emergence activity against GLXMA in % (GLXMA [3]) | post-emergence activity against BRSNW in % (BRSNW [4]) | post-emergence activity against ZEAMX in % (ZEAMX [5]; application rate 80 g/ha) | post-emergence activity against ZEAMX in % (ZEAMX [5]; application rate 320 g/ha) | pre-emergence activity against GLXMA (GLXMA [6]; application rate 80 g/ha, Table D4b) | pre-emergence activity against GLXMA (GLXMA [6]; application rate 320 g/ha, Table D4a) | pre-emergence activity against BRSNW in % (BRSNW [7]; application rate 80 g/ha) | pre-emergence activity against BRSNW in % (BRSNW [7]; application rate 320 g/ha) | pre-emergence activity against ZEAMX (ZEAMX [9]; application rate 80 g/ha, Table D1b) | pre-emergence activity against ZEAMX (ZEAMX [9]; application rate 320 g/ha, Table D1a) | post-emergence activity against TRZAS in % (TRZAS [10]; application rate 80 g/ha) | post-emergence activity against TRZAS in % (TRZAS [10]; application rate 320 g/ha)
80%: pre-emergence activity against VIOTR (VIOTR)
